Measurements reported in ChEMBL document CHEMBL1201862, “PubChem BioAssay data set” (2004).
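Dose response: 5 concentrations. Exposure: 48 h. Format: 96-well plates. Endpoint: linear interpolation; highest concentration if not reached. Abbreviation: GI50, concentration required for 50% inhibition of growth.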 Calls of active or inactive are those of the source. Cut-off read from the data, not from the text of the source: active = GI50 up to about 1.1 µM and inactive = higher.

Experiments:
Assay in all cases: NCI anticancer screen, dose series, 48 h
[1] = system: CAKI-1
[2] = system: CCRF-CEM
[3] = system: EKVX
[4] = system: HCC 2998
[5] = system: HCT-116
[6] = system: HOP-62
[7] = system: HOP-92
[8] = system: KM12
[9] = system: LOX IMVI
[10] = system: NCI-H23
[11] = system: OVCAR-4
[12] = system: OVCAR-5
[13] = system: RPMI-8226
[14] = system: RXF 393
[15] = system: SF-268
[16] = system: SK-MEL-28
[17] = system: SK-OV-3
[18] = system: SNB-19
[19] = system: TK-10
[20] = system: SNB-75

Row | SMILES | GI50 [1] | GI50 [2] | GI50 [3] | GI50 [4] | GI50 [5] | GI50 [6] | GI50 [7] | GI50 [8] | GI50 [9] | GI50 [10] | GI50 [11] | GI50 [12] | GI50 [13] | GI50 [14] | GI50 [15] | GI50 [16] | GI50 [17] | GI50 [18] | GI50 [19] | GI50 [20]
1 | CCOC(=O)c1c(Cl)nc2ccccc2c1N=[N+]=[N-] | 20.2 µM (inactive) | 41 µM (inactive) | 22.4 µM (inactive) | 80.4 µM (inactive) | 20.7 µM (inactive) | 49.3 µM (inactive) | 24.7 µM (inactive) | 16.2 µM (inactive) | 20.5 µM (inactive) | 27.7 µM (inactive) | 16.9 µM (inactive) | 19.3 µM (inactive) | 43.5 µM (inactive) | 44.6 µM (inactive) | 16.4 µM (inactive) | 52.4 µM (inactive) | 70.5 µM (inactive) | > 100 µM (inactive) | 31.9 µM (inactive) | 
2 | CC(C)=CCC/C(C)=C/CC/C(C)=C/C(O)c1ccccc1 (centres undefined) | > 10 µM (inactive) | 23.1 µM (inactive) | 20.1 µM (inactive) |  | 17.9 µM (inactive) | 19.1 µM (inactive) |  | 23.6 µM (inactive) | 19.6 µM (inactive) | 22.7 µM (inactive) | > 10 µM (inactive) | 18.3 µM (inactive) | 18.7 µM (inactive) |  | 18.9 µM (inactive) |  | 21.8 µM (inactive) | 20.2 µM (inactive) | 29.1 µM (inactive) | 
3 | c1ccc(COc2cccc3ccc[n+](Cc4ccccc4)c23)cc1 |  | 6.04 µM (inactive) | 6.43 µM (inactive) | 13.1 µM (inactive) |  | 12 µM (inactive) | 3.41 µM (inactive) | 3.41 µM (inactive) |  | 2.84 µM (inactive) | 3.6 µM (inactive) | 1.92 µM (inactive) | 2.77 µM (inactive) | 8.75 µM (inactive) | 4.06 µM (inactive) | 3.85 µM (inactive) | 23.8 µM (inactive) | 3.52 µM (inactive) | 12.1 µM (inactive) | 5.2 µM (inactive)
4 | O=C(O)C(SC(=S)c1ccc(C(=S)SC(C(=O)O)c2ccccc2)cc1)c1ccccc1 (centres undefined) |  | > 100 µM (inactive) |  | > 100 µM (inactive) | > 100 µM (inactive) | > 100 µM (inactive) | > 100 µM (inactive) | > 100 µM (inactive) | 50.6 µM (inactive) | > 100 µM (inactive) |  | > 100 µM (inactive) | 42.8 µM (inactive) | > 100 µM (inactive) | 97.3 µM (inactive) | 99.3 µM (inactive) | > 100 µM (inactive) | 46.6 µM (inactive) | > 100 µM (inactive) | 35 µM (inactive)
5 | O=C(Nc1nccs1)c1c(O)nc2sccn2c1=O | > 10 µM (inactive) | > 10 µM (inactive) | > 10 µM (inactive) | > 10 µM (inactive) | > 10 µM (inactive) | > 10 µM (inactive) |  | > 10 µM (inactive) | > 10 µM (inactive) | > 10 µM (inactive) | > 10 µM (inactive) | > 10 µM (inactive) | > 10 µM (inactive) | > 10 µM (inactive) | > 10 µM (inactive) | > 10 µM (inactive) | > 10 µM (inactive) | > 10 µM (inactive) | > 10 µM (inactive) | > 10 µM (inactive)
6 | O=C(O)C1CC2C=CCC(C2)C1 (centres undefined) | > 100 µM (inactive) | > 100 µM (inactive) | > 100 µM (inactive) |  | > 100 µM (inactive) | > 100 µM (inactive) | > 100 µM (inactive) | > 100 µM (inactive) | > 100 µM (inactive) | > 100 µM (inactive) | > 100 µM (inactive) | > 100 µM (inactive) | > 100 µM (inactive) | > 100 µM (inactive) | > 100 µM (inactive) | > 100 µM (inactive) | > 100 µM (inactive) | > 100 µM (inactive) | > 100 µM (inactive) | > 100 µM (inactive)
7 | CC1SC2=NC3=C(c4ccccc4C3=O)C(c3ccccc3Cl)N2C1=O (centres undefined) | > 100 µM (inactive) | 70.3 µM (inactive) | > 100 µM (inactive) | > 100 µM (inactive) | > 100 µM (inactive) | > 100 µM (inactive) | 78.2 µM (inactive) | > 100 µM (inactive) | > 100 µM (inactive) | 85.7 µM (inactive) | 86.1 µM (inactive) | > 100 µM (inactive) | 58.5 µM (inactive) |  | > 100 µM (inactive) | > 100 µM (inactive) | > 100 µM (inactive) | > 100 µM (inactive) | > 100 µM (inactive) | 63 µM (inactive)
8 | CSc1nc2c(nc(N)n2C2OCC(O)C(O)C2O)c(=O)[nH]1 (centres undefined) | > 100 µM (inactive) | > 100 µM (inactive) | > 100 µM (inactive) | > 100 µM (inactive) | > 100 µM (inactive) | > 100 µM (inactive) | > 100 µM (inactive) | > 100 µM (inactive) | > 100 µM (inactive) | > 100 µM (inactive) | > 100 µM (inactive) |  |  | > 100 µM (inactive) | > 100 µM (inactive) | > 100 µM (inactive) | > 100 µM (inactive) | > 100 µM (inactive) | > 100 µM (inactive) | > 100 µM (inactive)
9 | O=C(C1=C(C(=O)c2ccccc2)SC2(S1)C(C(=O)c1ccccc1)=C(C(=O)c1ccccc1)Sc1c2ssc1=O)c1ccccc1 | > 100 µM (inactive) | 8.34 µM (inactive) | > 100 µM (inactive) | 55.8 µM (inactive) | 82.4 µM (inactive) | > 100 µM (inactive) | > 100 µM (inactive) | 29.8 µM (inactive) | > 100 µM (inactive) | > 100 µM (inactive) | 36.7 µM (inactive) | 26.8 µM (inactive) |  | 34.8 µM (inactive) | 67.5 µM (inactive) | > 100 µM (inactive) | 49.3 µM (inactive) | 24.6 µM (inactive) | 70.1 µM (inactive) | 36.7 µM (inactive)
10 | CC(C)OP(=O)(OC(C)C)/C(F)=N/Nc1ccc([N+](=O)[O-])cc1 | > 100 µM (inactive) | > 100 µM (inactive) | > 100 µM (inactive) | > 100 µM (inactive) | > 100 µM (inactive) | > 100 µM (inactive) | > 100 µM (inactive) | 91.2 µM (inactive) |  | > 100 µM (inactive) | > 100 µM (inactive) | > 100 µM (inactive) | > 100 µM (inactive) |  | > 100 µM (inactive) | > 100 µM (inactive) | > 100 µM (inactive) | > 100 µM (inactive) | > 100 µM (inactive) | 38.7 µM (inactive)
11 | CCc1ccc2nc(-c3ccc(O)cc3)sc2c1 | 12.4 µM (inactive) |  |  |  | 16.7 µM (inactive) |  |  | 14.3 µM (inactive) | 16.3 µM (inactive) | 16.1 µM (inactive) |  | 15.3 µM (inactive) | 13.9 µM (inactive) |  | 17.4 µM (inactive) |  | 16.7 µM (inactive) | 14.7 µM (inactive) | 17.9 µM (inactive) | 
12 | CC[n+]1c(-c2ccccc2)c2cc(N)ccc2c2ccc(N)cc21 [HOMIDIUM BROMIDE] | 16.9 µM (inactive) |  |  | 4.79 µM (inactive) | 3.62 µM (inactive) |  | 2.24 µM (inactive) | 2.49 µM (inactive) |  | 1.53 µM (inactive) | 4.44 µM (inactive) | 15.4 µM (inactive) |  | 5.68 µM (inactive) |  | 2.05 µM (inactive) | 3.52 µM (inactive) |  | 8.36 µM (inactive) | 0.0372 µM (active)
